# According to US10364216B2, “Alkenyl sulfate ester or salt thereof” (Kao Corporation, priority 2013, dated 2019):
# Counter-ions that a name gives are not always drawn.
# Biological target: T1, ENaC complex (human ENaCα, β and γ) (Homo sapiens, UniProt P37088+P51168+P51170)
# T1 construct: host or cells: Xenopus oocytes injected with cRNA
# T1 sequence (P37088 1-669): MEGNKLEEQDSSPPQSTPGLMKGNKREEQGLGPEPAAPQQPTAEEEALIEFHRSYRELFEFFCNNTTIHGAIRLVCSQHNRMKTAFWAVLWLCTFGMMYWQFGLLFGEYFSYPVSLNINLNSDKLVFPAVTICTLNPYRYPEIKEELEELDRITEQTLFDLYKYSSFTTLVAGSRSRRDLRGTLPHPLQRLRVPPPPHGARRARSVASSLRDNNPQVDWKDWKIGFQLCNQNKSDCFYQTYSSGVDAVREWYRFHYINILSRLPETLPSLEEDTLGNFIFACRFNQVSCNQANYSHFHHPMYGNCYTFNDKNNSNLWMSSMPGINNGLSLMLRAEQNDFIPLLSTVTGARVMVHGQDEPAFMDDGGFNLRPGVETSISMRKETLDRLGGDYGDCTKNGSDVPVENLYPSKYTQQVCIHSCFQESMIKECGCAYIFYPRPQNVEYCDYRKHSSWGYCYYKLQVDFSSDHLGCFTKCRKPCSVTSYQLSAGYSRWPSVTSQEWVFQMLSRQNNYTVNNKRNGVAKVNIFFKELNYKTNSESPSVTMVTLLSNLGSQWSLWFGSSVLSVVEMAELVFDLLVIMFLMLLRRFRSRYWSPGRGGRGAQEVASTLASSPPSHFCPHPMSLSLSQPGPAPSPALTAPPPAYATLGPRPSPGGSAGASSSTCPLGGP
# T1 sequence (P51168 1-640): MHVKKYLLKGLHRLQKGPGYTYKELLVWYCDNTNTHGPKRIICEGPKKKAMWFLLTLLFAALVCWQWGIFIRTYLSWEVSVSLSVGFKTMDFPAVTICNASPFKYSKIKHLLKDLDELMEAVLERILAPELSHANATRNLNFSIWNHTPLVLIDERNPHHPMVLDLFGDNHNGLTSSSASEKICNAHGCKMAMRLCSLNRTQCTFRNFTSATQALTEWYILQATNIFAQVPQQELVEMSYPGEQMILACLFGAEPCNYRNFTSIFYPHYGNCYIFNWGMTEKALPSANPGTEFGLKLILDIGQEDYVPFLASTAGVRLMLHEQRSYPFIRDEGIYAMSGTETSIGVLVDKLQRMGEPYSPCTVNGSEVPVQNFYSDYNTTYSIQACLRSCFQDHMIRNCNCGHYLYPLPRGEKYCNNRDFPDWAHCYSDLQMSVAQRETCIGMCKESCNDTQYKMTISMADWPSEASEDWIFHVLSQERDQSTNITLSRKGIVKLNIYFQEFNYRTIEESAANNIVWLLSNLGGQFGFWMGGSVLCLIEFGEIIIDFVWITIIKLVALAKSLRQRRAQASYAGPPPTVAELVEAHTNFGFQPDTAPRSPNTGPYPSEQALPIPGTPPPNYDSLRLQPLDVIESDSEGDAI
# T1 sequence (P51170 1-649): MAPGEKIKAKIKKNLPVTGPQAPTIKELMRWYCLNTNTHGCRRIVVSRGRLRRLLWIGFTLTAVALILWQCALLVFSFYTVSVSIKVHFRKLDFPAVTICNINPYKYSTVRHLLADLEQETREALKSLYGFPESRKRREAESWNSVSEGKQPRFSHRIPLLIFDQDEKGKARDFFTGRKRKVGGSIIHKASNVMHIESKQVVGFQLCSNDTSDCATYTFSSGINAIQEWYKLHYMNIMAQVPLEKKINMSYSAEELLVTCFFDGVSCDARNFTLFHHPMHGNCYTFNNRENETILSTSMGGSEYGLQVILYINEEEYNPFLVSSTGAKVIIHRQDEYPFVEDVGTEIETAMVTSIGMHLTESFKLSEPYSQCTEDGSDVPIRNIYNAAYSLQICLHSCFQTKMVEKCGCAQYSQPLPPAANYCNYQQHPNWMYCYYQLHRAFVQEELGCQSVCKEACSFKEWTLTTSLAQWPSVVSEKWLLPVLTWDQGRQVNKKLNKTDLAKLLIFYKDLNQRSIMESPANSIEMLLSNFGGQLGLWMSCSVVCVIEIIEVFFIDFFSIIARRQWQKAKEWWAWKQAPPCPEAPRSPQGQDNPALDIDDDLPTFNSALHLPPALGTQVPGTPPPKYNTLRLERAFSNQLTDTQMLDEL
# Test: ENaC inhibition activity, two-electrode voltage clamp in Xenopus oocytes
# Format: cell-based
# Settings: 3 to 30 mM; membrane potential −60 mV; 115 mM NaCl solution; FIG. 1
# Experimental: Inhibition activity of ENaC expressed in Xenopus oocytes was measured according to the method described in “The journal of biological chemistry, 284 (2): pages 792-798 (2009)”. Specifically, trans-3-octenyl sulfate was added to oocytes expressed with ENaC complex, and the activity of ENaC was analyzed electrophysiologically in accordance with the procedures described below.
# First, DNA sequences encoding human ENaCα, β and γ, respectively were obtained by carrying out PCR using a plasmid vector on which the same gene was cloned (manufactured by Clontech Laboratories, Inc.) as a template. The obtained PCR amplification fragment was integrated into a transcription vector pSP64 (manufactured by Promega Corporation), and pSP64/ENaCα, pSP64/ENaCβ and pSP64/ENaCγ were manufactured, respectively.
# pSP64/ENaCα and pSP64/ENaCγ were digested with EcoRI, and pSP64/ENaCβ was digested with PvuII, respectively, whereby linearize the plasmid DNA. […]
# The obtained aqueous solutions of cRNA encoding ENaCα, ENaCβ and ENaCγ respectively were mixed in the same quantity, and injected by 50 ng per one Xenopus oocyte. […]
# Two micro-glass electrodes were inserted into the oocyte, and the membrane potential was fixed at −60 mV. At this time, Na^+ ion influx induced by ENaC complex in a constantly active state was measured with replacement to change of the current amount. […]
compound,measurement,value
CCCC/C=C/CCOS(=O)(=O)O [trans-3-octenyl sulfate],Effect on inward current of ENaC expressing oocytes,inhibited inward current of ENaC expressing oocytes concentration-dependently
